Measured values published in ChEMBL document CHEMBL1201862, “PubChem BioAssay data set” (2004).
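All cell lines were grown in 96-well plates and treated with compound for 48 hours. GI50 marks 50% less growth.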 Active and inactive are the calls of the source. No stated cut-off is given here; in the data, active = GI50 up to about 1.1 µM and inactive = higher.

What was measured:
Experiment in all cases: inhibition of tumour cell growth, NCI panel, 48 h
786-0 = test system: 786-0
A549 = test system: A549
BT-549 = test system: BT-549
CAKI-1 = test system: CAKI-1
COLO 205 = test system: COLO 205
HCT-116 = test system: HCT-116
HOP-92 = test system: HOP-92
IGROV-1 = test system: IGROV-1
KM12 = test system: KM12
M14 = test system: M14
MDA-MB-435 = test system: MDA-MB-435
MDA-N = test system: MDA-N
OVCAR-3 = test system: OVCAR-3
OVCAR-4 = test system: OVCAR-4
SK-MEL-5 = test system: SK-MEL-5
SW-620 = test system: SW-620
UACC-257 = test system: UACC-257
UACC-62 = test system: UACC-62
CCRF-CEM = test system: CCRF-CEM
SR = test system: SR

Measured: GI50

Oc1cc(O)c2c(c1)OC(c1ccc(O)c(O)c1)C(O)C2c1c(O)cc(O)c2c1OC(c1ccc(O)c(O)c1)C(O)C2 (configuration not stated)
inactive: 786-0 > 100 µM | A549 > 100 µM | BT-549 > 100 µM | CAKI-1 25.4 µM | COLO 205 > 100 µM | HCT-116 > 100 µM | HOP-92 > 100 µM | IGROV-1 > 100 µM | KM12 46.5 µM | M14 > 100 µM | MDA-MB-435 > 100 µM | MDA-N > 100 µM | OVCAR-3 > 100 µM | OVCAR-4 > 100 µM | SK-MEL-5 > 100 µM | SW-620 45.4 µM | UACC-257 > 100 µM | UACC-62 > 100 µM

O=C(c1ccco1)N(C(=S)OCCOc1ccccc1)c1ccccc1
inactive: 786-0 19.7 µM | A549 30.8 µM | BT-549 23 µM | CAKI-1 18.7 µM | CCRF-CEM 20.1 µM | COLO 205 21 µM | HCT-116 17.3 µM | HOP-92 14.8 µM | IGROV-1 17.7 µM | KM12 19.5 µM | M14 19.5 µM | MDA-MB-435 16.2 µM | MDA-N 18.9 µM | OVCAR-3 16.5 µM | OVCAR-4 20 µM | SW-620 20.5 µM | UACC-257 17.9 µM | UACC-62 16.6 µM

O=C1CSCc2sccc21
inactive: 786-0 > 100 µM | A549 > 100 µM | BT-549 > 100 µM | CAKI-1 > 100 µM | CCRF-CEM > 100 µM | COLO 205 > 100 µM | HCT-116 > 100 µM | IGROV-1 > 100 µM | KM12 > 100 µM | M14 > 100 µM | MDA-N > 100 µM | OVCAR-3 > 100 µM | OVCAR-4 > 100 µM | SK-MEL-5 > 100 µM | SR > 100 µM | SW-620 > 100 µM | UACC-257 > 100 µM | UACC-62 > 100 µM

CN(C)C=C1C(=O)c2c(Br)sc(Br)c2C1=O
inactive: 786-0 33.9 µM | A549 36.4 µM | BT-549 20.8 µM | CAKI-1 18.1 µM | CCRF-CEM 30.4 µM | COLO 205 18.5 µM | HCT-116 21.8 µM | HOP-92 16.6 µM | IGROV-1 18.7 µM | KM12 30.1 µM | M14 18.7 µM | MDA-MB-435 14.1 µM | MDA-N 19.7 µM | OVCAR-3 19.1 µM | OVCAR-4 13.8 µM | SK-MEL-5 16.3 µM | SW-620 28.3 µM | UACC-257 16.3 µM | UACC-62 17.1 µM

CCc1nc2cc(F)ccc2[nH]c1=O
inactive: 786-0 > 100 µM | A549 > 100 µM | BT-549 > 100 µM | CAKI-1 > 100 µM | CCRF-CEM > 100 µM | COLO 205 > 100 µM | HCT-116 > 100 µM | HOP-92 > 100 µM | KM12 > 100 µM | M14 > 100 µM | MDA-MB-435 > 100 µM | MDA-N > 100 µM | OVCAR-3 > 100 µM | OVCAR-4 > 100 µM | SK-MEL-5 > 100 µM | SW-620 > 100 µM | UACC-257 > 100 µM | UACC-62 38.7 µM

COc1cc2cc(c1Cl)N(C)C(=O)C[C@H](OC(=O)[C@H](C)N(C)C(C)=O)[C@]1(C)O[C@H]1[C@H](C)[C@@H]1C[C@@](O)(NC(=O)O1)[C@H](OC)/C=C/C=C(/C)C2
active: 786-0 0.025 µM | A549 0.0255 µM | BT-549 0.334 µM | CAKI-1 0.0531 µM | CCRF-CEM 0.0159 µM | COLO 205 0.02 µM | HCT-116 0.0143 µM | HOP-92 0.0118 µM | IGROV-1 0.0239 µM | KM12 0.0149 µM | M14 0.0509 µM | MDA-N 0.0131 µM | OVCAR-3 0.0127 µM | OVCAR-4 0.794 µM | SK-MEL-5 0.0135 µM | SR 0.0156 µM | SW-620 0.0165 µM | UACC-257 0.0373 µM | UACC-62 0.0337 µM

CN(C)c1ccc(/C=C(\NC(=O)c2ccccc2)C(=O)Nc2ccccc2C(=O)NCc2ccccc2)cc1
inactive: 786-0 > 100 µM | A549 > 100 µM | BT-549 > 100 µM | CAKI-1 > 100 µM | CCRF-CEM 62.4 µM | COLO 205 > 100 µM | HCT-116 > 100 µM | HOP-92 > 100 µM | IGROV-1 > 100 µM | KM12 58.5 µM | M14 77.6 µM | MDA-MB-435 > 100 µM | MDA-N > 100 µM | OVCAR-3 > 100 µM | OVCAR-4 58.2 µM | SK-MEL-5 41.9 µM | SW-620 > 100 µM | UACC-257 36.1 µM | UACC-62 > 100 µM

O=C(O)CCNc1ncc2c(n1)-c1ccccc1OC2
inactive: 786-0 > 100 µM | A549 > 100 µM | CAKI-1 > 100 µM | CCRF-CEM > 100 µM | COLO 205 > 100 µM | HCT-116 > 100 µM | HOP-92 29 µM | IGROV-1 36.2 µM | KM12 > 100 µM | M14 > 100 µM | MDA-MB-435 > 100 µM | MDA-N > 100 µM | OVCAR-3 > 100 µM | OVCAR-4 > 100 µM | SK-MEL-5 > 100 µM | SR > 100 µM | SW-620 > 100 µM | UACC-257 > 100 µM | UACC-62 > 100 µM

NC(=O)C1N=NSC1NC(=O)c1ccc([N+](=O)[O-])cc1 (configuration not stated)
inactive: 786-0 > 100 µM | A549 27 µM | BT-549 48.2 µM | CAKI-1 63.5 µM | CCRF-CEM 43.5 µM | COLO 205 44.5 µM | HCT-116 47.5 µM | IGROV-1 22.4 µM | KM12 49.9 µM | M14 56.4 µM | MDA-MB-435 46.5 µM | MDA-N 67.3 µM | OVCAR-3 30.4 µM | OVCAR-4 43.3 µM | SK-MEL-5 22 µM | SW-620 50.6 µM | UACC-257 > 100 µM | UACC-62 49.4 µM

CC(C)(CN1CCCCC1)C(/C=C/c1ccc(Cl)c(Cl)c1)=N\NC(=O)N/N=C(/C=C/c1ccc(Cl)c(Cl)c1)C(C)(C)CN1CCCCC1
inactive: 786-0 1.48 µM | A549 1.86 µM | BT-549 > 10 µM | CAKI-1 1.71 µM | CCRF-CEM 1.76 µM | COLO 205 1.64 µM | IGROV-1 1.77 µM | KM12 1.63 µM | MDA-MB-435 1.31 µM | MDA-N 1.42 µM | OVCAR-3 1.56 µM | OVCAR-4 1.71 µM | SK-MEL-5 1.99 µM | SW-620 1.62 µM | UACC-257 1.63 µM | UACC-62 1.95 µM
active: HCT-116 0.908 µM | M14 0.385 µM

Oc1c(CN2CCOCC2)ccc2cccnc12
inactive: 786-0 > 10 µM | A549 > 10 µM | BT-549 1.51 µM | CAKI-1 5.16 µM | CCRF-CEM 2.54 µM | COLO 205 > 10 µM | HCT-116 6.55 µM | HOP-92 > 10 µM | IGROV-1 > 10 µM | KM12 > 10 µM | M14 > 10 µM | MDA-MB-435 > 10 µM | MDA-N > 10 µM | OVCAR-3 > 10 µM | OVCAR-4 > 10 µM | SK-MEL-5 > 10 µM | SW-620 > 10 µM | UACC-257 > 10 µM
